Reference: US12077483B2, “Modified amine lipids” (Intellia Therapeutics, Inc., priority 2018, dated 2024)
“And” between values parts separate entries of the source, which are not always exact repeats. Identical values can stand only once. Values belong to the compound of their own block, whether it stands above or below them.

Columns and labels:
[1] = LNP average particle size and polydispersity by dynamic light scattering; format: physicochemical
Outline: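 LNPs were diluted in PBS to a count rate of about 200-400 kcps and measured by DLS on a Zetasizer. Size is the intensity-weighted Z-average diameter, reported with number-average diameter, and the polydispersity index describes the spread of sizes around the mean.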

[2] = pKa of amine lipid by TNS fluorescence; format: physicochemical; conditions: probe TNS (6-(p-toluidino)-2-naphthalenesulfonic acid sodium salt), unformulated amine lipid in ethanol, sodium phosphate buffers -9.0
Outline: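 pKa derived from a sigmoidal fit of normalized TNS fluorescence (321 nm excitation, 448 nm emission) versus pH. Lipid from ethanol stock diluted to about 100 μM final in 0.1 M phosphate buffers, pH 4.5–9.0.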

mouse TTR = test: Serum TTR ELISA in mice after LNP delivery; format: in vivo
Outline: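 Mouse TTR in serum was quantified by ELISA (samples diluted e.g. 10,000- and/or 2,500-fold) 6–7 days after dosing CD-1 females with LNP, typically 0.1 mpk. Values are reported relative to vehicle-treated controls (%).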

[3] = RNA encapsulation efficiency of LNP (Ribogreen fluorescence assay); format: physicochemical; conditions: for % E: Table 13, LNP sgRNA:Cas9 mRNA 1:2 w/w, N/P 6.0
Outline: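 LNP samples diluted in 1× TE with or without 0.2% Triton-X 100 for total or free RNA, stained ~10 min at room temperature in the dark with RiboGreen; fluorescence ex 488/em 525 nm against RNA standard curves. Encapsulation efficiency = (Total RNA−Free RNA)/Total RNA.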

[4] = LNP with the compound as amine lipid, Expt. 1, composition ratio (mol %) 50/9/38/3 for Cmpnd 49, 50/10/38.5/1.5 for the others
[5] = LNP with the compound as amine lipid, Expt. 6, composition ratio (mol %) 50/9/38/3 for Cmpnd 49, 50/10/38.5/1.5 for the others
[6] = LNP with the compound as amine lipid, Expt. 10, composition ratio (mol %) 50/9/38/3 for Cmpnd 49, 50/10/38.5/1.5 for the others
[7] = Table 6, LNP with G00282 sgRNA:Cas9 mRNA 1:1 w/w
[8] = Table 10, LNP with G00534 sgRNA:Cas9 mRNA 1:2 w/w
[9] = Table 13, LNP sgRNA:Cas9 mRNA 1:2 w/w, N/P 6.0
[10] = mouse serum, relative to TSS control of same experiment, dose 0.03 mpk, 0.03 mg/kg
[11] = LNP with the compound as amine lipid, Expt. 8, composition ratio (mol %) 50/9/38/3 for Cmpnd 49, 50/10/38.5/1.5 for the others
[12] = mouse serum, relative to TSS control of same experiment, dose 0.03 mpk
[13] = mouse serum, relative to TSS control of same experiment, dose 0.1 mpk
[14] = LNP with the compound as amine lipid, Expt. 7, composition ratio (mol %) 50/9/38/3 for Cmpnd 49, 50/10/38.5/1.5 for the others
[15] = LNP with the compound as amine lipid, Expt. 4, composition ratio (mol %) 50/9/38/3 for Cmpnd 49, 50/10/38.5/1.5 for the others
[16] = Table 3, guide G282, CD-1 female mice, 0.1 mpk i.v., Exp. 1, 8, 9, 10
[17] = Table 3, guide G282, CD-1 female mice, 0.1 mpk i.v., percentage of vehicle control (TSS)
[18] = LNP with the compound as amine lipid, Expt. 2, composition ratio (mol %) 50/9/39.5/3 for Cmpnd 49, 50/9/39.5/1.5 for the others
[19] = LNP with the compound as amine lipid, Expt. 3, composition ratio (mol %) 50/9/38/3 for Cmpnd 49, 50/10/38.5/1.5 for the others

Compound: CCCCC/C=C\C/C=C\CCCCCCCC(=O)OCC(COC(=O)CCCCCCC/C=C\C/C=C\CCCCC)OC(=O)CCC(CCCCCCCC)OC(=O)NCCN(C)CC (stereo not drawn) [Compound 34, 2-((4-(((2-(ethyl(methyl)amino)ethyl)carbamoyl)oxy)dodecanoyl)oxy)propane-1,3-diyl (9Z,9′Z,12Z,12′Z)-bis(octadeca-9,12-dienoate)]
- Num Ave Size (nm) [1, 4]: 76.32 nm
- PDI [1, 4]: 0.02
- Z-Ave Size (nm) [1, 4]: 93.66 nm
- Num Ave Size (nm) [1, 5]: 73 nm
- PDI [1, 5]: 0.03
- Z-Ave Size (nm) [1, 5]: 89.00 nm
- Num Ave Size (nm) [1, 6]: 77 nm
- PDI [1, 6]: 0.03
- Z-Ave Size (nm) [1, 6]: 95 nm
- Num Ave Size (nm) [1, 7]: 71.97 nm
- PDI [1, 7]: 0.015
- Z-Ave Size (nm) [1, 7]: 86.45 nm
- Num Avg Size (nm) [1, 8]: 76.08 nm
- PDI [1, 8]: 0.052
- Z-Avg Size (nm) [1, 8]: 96.43 nm
- Number Average [nm] [1, 9]: 75.88 nm
- PDI [1, 9]: 0.009
- Z-Ave Size (nm) [1, 9]: 93.01 nm
- pKa [2]: 6.36
- Serum TTR (mouse TTR; Table 7, G00282, CD-1 female mice i.v., dose 0.1 mpk): 170 µg/mL
- Serum TTR % TSS (mouse TTR; Table 7, G00282, CD-1 female mice i.v., dose 0.1 mpk, percentage of vehicle control): 21% TSS
- Serum TTR (mouse TTR; Table 7, G00282, CD-1 female mice i.v., dose 0.3 mpk): 45 µg/mL
- Serum TTR % TSS (mouse TTR; Table 7, G00282, CD-1 female mice i.v., dose 0.3 mpk, percentage of vehicle control): 5% TSS
- Serum TTR % TSS (mouse TTR; [10]): 55% TSS and 85.10 % TSS
- Encapsulation (%) [3, 4]: 98%
- Encapsulation (%) [3, 5]: 98%
- Encapsulation (%) [3, 6]: 98%
- Encapsulation (%) [3, 7]: 98%
- Encapsulation (%) [3, 8]: 93%
- % E [3]: 97%

Compound: CCCCC/C=C\C/C=C\CCCCCCCC(=O)OCC(COC(=O)CCCCCCC/C=C\C/C=C\CCCCC)OC(=O)CCC(CCCCCCCC)OC(=O)NCC1CCCN1C (stereo not drawn) [Compound 35, 2-((4-((((1-methylpyrrolidin-2-yl)methyl)carbamoyl)oxy)dodecanoyl)oxy) propane-1,3-diyl (9Z,9′Z,12Z,12′Z)-bis(octadeca-9,12-dienoate)]
- Num Ave Size (nm) [1, 11]: 62.82 nm
- PDI [1, 11]: 0.068
- Z-Ave Size (nm) [1, 11]: 81.51 nm
- pKa [2]: 6.35
- Serum TTR % TSS (mouse TTR; [12]): 104.30 % TSS
- Serum TTR % TSS (mouse TTR; [13]): 99.13 % TSS
- Encapsulation (%) [3, 11]: 99%

Compound: CCCCC/C=C\C/C=C\CCCCCCCC(=O)OCC(COC(=O)CCCCCCC/C=C\C/C=C\CCCCC)OC(=O)CCC(CCCCCCCC)OC(=O)OCCCN1CCCC1 (stereo not drawn) [Compound 36, 2-((4-(((3-(pyrrolidin-1-yl)propoxy)carbonyl)oxy)dodecanoyl)oxy)propane-1,3-diyl (9Z,9′Z,12Z,12′Z)-bis(octadeca-9,12-dienoate)]
- Num Ave Size (nm) [1, 14]: 58.34 nm
- PDI [1, 14]: 0.058
- Z-Ave Size (nm) [1, 14]: 75.9 nm
- pKa [2]: 6.13
- Serum TTR % TSS (mouse TTR; [12]): 75.785 % TSS
- Serum TTR % TSS (mouse TTR; [13]): 43.824 % TSS
- Encapsulation (%) [3, 14]: 98%

Compound: CCCCC/C=C\C/C=C\CCCCCCCC(=O)OCC(COC(=O)CCCCCCC/C=C\C/C=C\CCCCC)OC(=O)CCC(CCCCCCCCCC)OC(=O)NCCN(C)CC (stereo not drawn) [Compound 39, 2-((4-(((2-(ethyl(methyl)amino)ethyl)carbamoyl)oxy)tetradecanoyl)oxy)propane-1,3-diyl (9Z,9′Z,12Z,12′Z)-bis(octadeca-9,12-dienoate)]
- Num Ave Size (nm) [1, 15]: 73.52 nm
- PDI [1, 15]: 0.015
- Z-Ave Size (nm) [1, 15]: 89.83 nm
- pKa [2]: 6.32
- Serum TTR (mouse TTR; [16]): 335 µg/mL
- Serum TTR % TSS (mouse TTR; [17]): 41% TSS
- Serum TTR % TSS (mouse TTR; [12]): 41% TSS
- Serum TTR % TSS (mouse TTR; [13]): 6% TSS
- Encapsulation (%) [3, 15]: 98%

Compound: CCCCC/C=C\C/C=C\CCCCCCCC(=O)OCC(COC(=O)CCCCCCC/C=C\C/C=C\CCCCC)OC(=O)CCC(CCCCCC)OC(=O)NCCN(C)CC (stereo not drawn) [Compound 40, 2-((4-(((2-(ethyl(methyl)amino)ethyl)carbamoyl)oxy)decanoyl)oxy)propane-1,3-diyl (9Z,9′Z,12Z,12′Z)-bis(octadeca-9,12-dienoate)]
- Num Ave Size (nm) [1, 15]: 81.51 nm
- PDI [1, 15]: 0.027
- Z-Ave Size (nm) [1, 15]: 101.10 nm
- pKa [2]: 6.34
- Serum TTR (mouse TTR; [16]): 251 µg/mL
- Serum TTR % TSS (mouse TTR; [17]): 31% TSS
- Serum TTR % TSS (mouse TTR; [12]): 77% TSS
- Serum TTR % TSS (mouse TTR; [13]): 9% TSS
- Encapsulation (%) [3, 15]: 97%

Now from value to compound, other results behind:

- Num Ave Size (nm) [1, 18]: 85.54 nm
- PDI [1, 18]: 0.021
- Z-Ave Size (nm) [1, 18]: 102.70 nm
- Num Ave Size (nm) [1, 14]: 77.92 nm
- PDI [1, 14]: 0.012
- Z-Ave Size (nm) [1, 14]: 95.26 nm
- Num Avg Size (nm) [1, 8]: 83.48 nm
- PDI [1, 8]: 0.052
- Z-Avg Size (nm) [1, 8]: 101.00 nm
- pKa [2]: 5.79
- Encapsulation (%) [3, 18]: 99%
- Encapsulation (%) [3, 14]: 98%
- Encapsulation (%) [3, 8]: 95%
Compound: CCCCC/C=C\C/C=C\CCCCCCCC(=O)OCC(COC(=O)CCCCCCC/C=C\C/C=C\CCCCC)OC(=O)CCC(CCCCCC)OC(=O)OCCCN1CCCC1 (stereo not drawn) [Compound 45, 2-((4-(((3-(pyrrolidin-1-yl)propoxy)carbonyl)oxy)decanoyl)oxy)propane-1,3-diyl (9Z,9′Z,12Z,12′Z)-bis(octadeca-9,12-dienoate)]
- Serum TTR % TSS (mouse TTR; [10]): 78.39 % TSS and 43.435 % TSS
- Serum TTR % TSS (mouse TTR; [13]): 10.09 % TSS

- Num Ave Size (nm) [1, 19]: 80.57 nm
- PDI [1, 19]: 0.02
- Z-Ave Size (nm) [1, 19]: 96.78 nm
- Num Ave Size (nm) [1, 6]: 82 nm
- PDI [1, 6]: 0.02
- Z-Ave Size (nm) [1, 6]: 98 nm
- Number Average [nm] [1, 9]: 80 nm
- PDI [1, 9]: 0.009
- Z-Ave Size (nm) [1, 9]: 97.21 nm
- pKa [2]: 6.37
- Encapsulation (%) [3, 19]: 98%
- Encapsulation (%) [3, 6]: 98%
- % E [3]: 98%
Compound: CCCCC/C=C\C/C=C\CCCCCCCC(=O)OCC(COC(=O)CCCCCCC/C=C\C/C=C\CCCCC)OC(=O)CCC(CCCCCCCC)OC(=O)NCCN1CCCC1 (stereo not drawn) [Compound 51, 2-((4-(((2-(pyrrolidin-1-yl)ethyl)carbamoyl)oxy)dodecanoyl)oxy)propane-1,3-diyl (9Z,9′Z,12Z,12′Z)-bis(octadeca-9,12-dienoate)]
- Serum TTR % TSS (mouse TTR; [13]): 9.32 % TSS

- Num Ave Size (nm) [1, 19]: 88.38 nm
- PDI [1, 19]: 0.02
- Z-Ave Size (nm) [1, 19]: 106.80 nm
- Number Average [nm] [1, 9]: 91.47 nm
- PDI [1, 9]: 0.018
- Z-Ave Size (nm) [1, 9]: 111.4 nm
- pKa [2]: 7.01
- Encapsulation (%) [3, 19]: 98%
- % E [3]: 94%
Compound: CCCCC/C=C\C/C=C\CCCCCCCC(=O)OCC(COC(=O)CCCCCCC/C=C\C/C=C\CCCCC)OC(=O)CCC(CCCCC)OC(=O)NCCN1CCCC1 (stereo not drawn) [Compound 72, 2-((4-(((2-(pyrrolidin-1l-yl)ethyl)carbamoyl)oxy)nonanoyl)oxy)propane-1,3-diyl (9Z,9′Z,12Z,12′Z)-bis(octadeca-9,12-dienoate)]
- Serum TTR % TSS (mouse TTR; [12]): 66.92 % TSS
- Serum TTR % TSS (mouse TTR; [13]): 26.43 % TSS
